{
  "source": "patent US20090093423A2",
  "about": "“NOVEL 2-SUBSTITUTED METHYL PENAM DERIVATIVES” (Orchid Chemicals and Pharmaceuticals Limited, priority 2006, published 2009)",
  "key": {"K. pneumoniae MRO 11008": {"tested_on": "K. pneumoniae MRO 11008", "test": "In vivo efficacy, infected mice", "conditions": "Swiss albino mice infected with K. pneumoniae MRO 11008; Piperacillin:inhibitor 4:1; 7-day survival", "protocol": "(§1) The efficacy studies were performed as described earlier (Kuck et al, 1989, Antimicrob. Agents. Chemother. 33(11): 1964-1969). Briefly, Swiss albino mice, 20+2 g, from in-house breeding facility were challenged by the intraperitoneal injection of bacterial suspensions in 0.5 mL of hog gastric mucin (10 to 100 50% lethal doses). […] All the untreated control animals died within 48 h of infection. In each experiment, in-house Tazo was used as an inhibitor control in four doses. Median (50%) effective dose (ED50) were determined by applying the Reed and Muench's method of the 7-day survival ratios."}, "E. coli MRO 10007": {"tested_on": "E. coli MRO 10007", "test": "In vivo efficacy, infected mice", "conditions": "Swiss albino mice infected with E. coli MRO 10007; Piperacillin:inhibitor 4:1; 7-day survival", "protocol": "as §1"}, "E. coli BAA-197 (TEM-12)": {"tested_on": "E. coli BAA-197 (TEM-12)", "test": "MIC, Agar Dilution Method, ESBL producing ATCC isolate", "type": "cell-based", "protocol": "(§2) The novel compounds were tested for the in vitro antibacterial activities by the Agar Dilution Method as specified in documents published by NCCLS, now CLSI, USA. (National Committee for Clinical Laboratory Standards (NCCLS). 2003. Approved standard M7-A6. NCCLS, Villanova, Pa.).\n(§3) Tazo was also dissolved in same buffer to get a solution of, e.g., 1 mg/mL. Novel penam derivatives described herein were dissolved in water to get a solution of, e.g., 1 mg/mL.\n(§4) The novel compounds and Tazo were also tested individually. The bacterial inoculum was prepared by picking 3 to 5 well-isolated bacterial colonies with the same morphological appearance from an 18-24 h old culture and adjusting the turbidity of the saline suspension to 0.5 McFarland Turbidity Standard equivalent to a bacterial population of 1.5×10^8 colony forming units (CFU) per mL of suspension. The suspension was diluted 1:10 in saline (i.e. 0.5 mL suspension+4.5 mL saline) to get a bacterial population of 1.5×10^7 CFU/mL as inoculum. […] The inoculated petridishes were incubated at 35° C. in an ambient atmosphere for 16-20 h."}, "E. coli BAA-202 (SHV-1)": {"tested_on": "E. coli BAA-202 (SHV-1)", "test": "MIC, Agar Dilution Method, ESBL producing ATCC isolate", "type": "cell-based", "protocol": "as §2, §3, §4"}, "E. coli BAA-199 (SHV-3)": {"tested_on": "E. coli BAA-199 (SHV-3)", "test": "MIC, Agar Dilution Method, ESBL producing ATCC isolate", "type": "cell-based", "conditions": "E. coli BAA-199, SHV-3", "protocol": "as §2, §3, §4"}, "E. coli BAA-200 (SHV-4)": {"tested_on": "E. coli BAA-200 (SHV-4)", "test": "MIC, Agar Dilution Method, ESBL producing ATCC isolate", "type": "cell-based", "conditions": "E. coli BAA-200, SHV-4", "protocol": "as §2, §3, §4"}, "E. coli BAA-196 (TEM-10)": {"tested_on": "E. coli BAA-196 (TEM-10)", "test": "MIC, Agar Dilution Method, ESBL producing ATCC isolate", "type": "cell-based", "protocol": "as §2, §3, §4"}, "[1]": {"tested_on": "K. pneumoniae 51503 (TEM-10 & -12)", "test": "MIC, Agar Dilution Method, ESBL producing ATCC isolate", "type": "cell-based", "protocol": "as §2, §3, §4"}, "E. coli BAA-198 (TEM-26)": {"tested_on": "E. coli BAA-198 (TEM-26)", "test": "MIC, Agar Dilution Method, ESBL producing ATCC isolate", "type": "cell-based", "protocol": "as §2, §3, §4"}, "E. coli BAA-201 (TEM-3)": {"tested_on": "E. coli BAA-201 (TEM-3)", "test": "MIC, Agar Dilution Method, ESBL producing ATCC isolate", "type": "cell-based", "protocol": "as §2, §3, §4"}, "[2]": {"tested_on": "P. mirabilis BAA-663 (TEM-89)", "test": "MIC, Agar Dilution Method, ESBL producing ATCC isolate", "type": "cell-based", "protocol": "as §2, §3, §4"}, "A. baumani MRO 14512": {"tested_on": "A. baumani MRO 14512", "test": "MIC, Agar Dilution Method, resistant clinical isolate", "type": "cell-based", "conditions": "Pip + 4 μg/mL inhibitor", "protocol": "as §2, §3, §4"}, "E. coli MRO 10135": {"tested_on": "E. coli MRO 10135", "test": "MIC, Agar Dilution Method, resistant clinical isolate", "type": "cell-based", "conditions": "Pip + 4 μg/mL inhibitor", "protocol": "as §2, §3, §4"}, "A. baumani MRO 14515": {"tested_on": "A. baumani MRO 14515", "test": "MIC, Agar Dilution Method, resistant clinical isolate", "type": "cell-based", "conditions": "Pip + 4 μg/mL inhibitor", "protocol": "as §2, §3, §4"}, "A. baumani MRO 14514": {"tested_on": "A. baumani MRO 14514", "test": "MIC, Agar Dilution Method, resistant clinical isolate", "type": "cell-based", "conditions": "Pip + 4 μg/mL inhibitor", "protocol": "as §2, §3, §4"}, "[3]": {"test": "Minimum bactericidal studies, broth macrodilution", "type": "cell-based", "protocol": "Minimum bactericidal studies were performed by broth macrodilution technique as described by NCCLS."}},
  "data": [
    {"smiles": "C[C@]1(Cn2ccnn2)[C@H](C(=O)O)N2C(=O)C[C@H]2S1(=O)=O", "note": "[Tazo]", "values": [
      {"measurement": "ED50 of Piperacillin in combination with inhibitor", "setting": "K. pneumoniae MRO 11008", "value": 99.48, "unit": "mg/kg b.w."},
      {"measurement": "ED50 of Piperacillin in combination with inhibitor", "setting": "E. coli MRO 10007", "value": 58.81, "unit": "mg/kg b.w."},
      {"measurement": "MIC of Piperacillin with different concentrations of Tazo or compound of Example 1", "setting": "E. coli BAA-197 (TEM-12); inhibitor 1 μg/mL", "value": 64, "unit": "mg/L"},
      {"measurement": "MIC of Piperacillin with different concentrations of Tazo or compound of Example 1", "setting": "E. coli BAA-197 (TEM-12); inhibitor 2 μg/mL", "value": 8, "unit": "mg/L"},
      {"measurement": "MIC of Piperacillin with different concentrations of Tazo or compound of Example 1", "setting": "E. coli BAA-197 (TEM-12); inhibitor 4 μg/mL", "value": 4, "unit": "mg/L"},
      {"measurement": "MIC of Piperacillin with different concentrations of Tazo or compound of Example 1", "setting": "E. coli BAA-202 (SHV-1); inhibitor 1 μg/mL", "value": ">128", "unit": "mg/L"},
      {"measurement": "MIC of Piperacillin with different concentrations of Tazo or compound of Example 1", "setting": "E. coli BAA-202 (SHV-1); inhibitor 2 μg/mL", "value": ">128", "unit": "mg/L"},
      {"measurement": "MIC of Piperacillin with different concentrations of Tazo or compound of Example 1", "setting": "E. coli BAA-202 (SHV-1); inhibitor 4 μg/mL", "value": ">128", "unit": "mg/L"},
      {"measurement": "MIC of Piperacillin with different concentrations of Tazo or compound of Example 1", "setting": "E. coli BAA-199 (SHV-3); inhibitor 1 μg/mL", "value": ">128", "unit": "mg/L"},
      {"measurement": "MIC of Piperacillin with different concentrations of Tazo or compound of Example 1", "setting": "E. coli BAA-199 (SHV-3); inhibitor 2 μg/mL", "value": ">128", "unit": "mg/L"},
      {"measurement": "MIC of Piperacillin with different concentrations of Tazo or compound of Example 1", "setting": "E. coli BAA-199 (SHV-3); inhibitor 4 μg/mL", "value": ">128", "unit": "mg/L"},
      {"measurement": "MIC of Piperacillin with different concentrations of Tazo or compound of Example 1", "setting": "E. coli BAA-200 (SHV-4); inhibitor 1 μg/mL", "value": ">128", "unit": "mg/L"},
      {"measurement": "MIC of Piperacillin with different concentrations of Tazo or compound of Example 1", "setting": "E. coli BAA-200 (SHV-4); inhibitor 2 μg/mL", "value": ">128", "unit": "mg/L"},
      {"measurement": "MIC of Piperacillin with different concentrations of Tazo or compound of Example 1", "setting": "E. coli BAA-200 (SHV-4); inhibitor 4 μg/mL", "value": 4, "unit": "mg/L"},
      {"measurement": "MIC of Piperacillin with different concentrations of Tazo or compound of Example 1", "setting": "E. coli BAA-196 (TEM-10); inhibitor 1 μg/mL", "value": 64, "unit": "mg/L"},
      {"measurement": "MIC of Piperacillin with different concentrations of Tazo or compound of Example 1", "setting": "E. coli BAA-196 (TEM-10); inhibitor 2 μg/mL", "value": 16, "unit": "mg/L"},
      {"measurement": "MIC of Piperacillin with different concentrations of Tazo or compound of Example 1", "setting": "E. coli BAA-196 (TEM-10); inhibitor 4 μg/mL", "value": 4, "unit": "mg/L"},
      {"measurement": "MIC of Piperacillin with different concentrations of Tazo or compound of Example 1", "setting": "[1]; inhibitor 1 μg/mL", "value": ">128", "unit": "mg/L"},
      {"measurement": "MIC of Piperacillin with different concentrations of Tazo or compound of Example 1", "setting": "[1]; inhibitor 2 μg/mL", "value": ">128", "unit": "mg/L"},
      {"measurement": "MIC of Piperacillin with different concentrations of Tazo or compound of Example 1", "setting": "[1]; inhibitor 4 μg/mL", "value": 16, "unit": "mg/L"},
      {"measurement": "MIC of Piperacillin with different concentrations of Tazo or compound of Example 1", "setting": "E. coli BAA-198 (TEM-26); inhibitor 1 μg/mL", "value": 4, "unit": "mg/L"},
      {"measurement": "MIC of Piperacillin with different concentrations of Tazo or compound of Example 1", "setting": "E. coli BAA-198 (TEM-26); inhibitor 2 μg/mL", "value": 4, "unit": "mg/L"},
      {"measurement": "MIC of Piperacillin with different concentrations of Tazo or compound of Example 1", "setting": "E. coli BAA-198 (TEM-26); inhibitor 4 μg/mL", "value": 4, "unit": "mg/L"},
      {"measurement": "MIC of Piperacillin with different concentrations of Tazo or compound of Example 1", "setting": "E. coli BAA-201 (TEM-3); inhibitor 1 μg/mL", "value": 4, "unit": "mg/L"},
      {"measurement": "MIC of Piperacillin with different concentrations of Tazo or compound of Example 1", "setting": "E. coli BAA-201 (TEM-3); inhibitor 2 μg/mL", "value": 4, "unit": "mg/L"},
      {"measurement": "MIC of Piperacillin with different concentrations of Tazo or compound of Example 1", "setting": "E. coli BAA-201 (TEM-3); inhibitor 4 μg/mL", "value": 2, "unit": "mg/L"},
      {"measurement": "MIC of Piperacillin with different concentrations of Tazo or compound of Example 1", "setting": "[2]; inhibitor 1 μg/mL", "value": 8, "unit": "mg/L"},
      {"measurement": "MIC of Piperacillin with different concentrations of Tazo or compound of Example 1", "setting": "[2]; inhibitor 2 μg/mL", "value": 8, "unit": "mg/L"},
      {"measurement": "MIC of Piperacillin with different concentrations of Tazo or compound of Example 1", "setting": "[2]; inhibitor 4 μg/mL", "value": 4, "unit": "mg/L"},
      {"measurement": "MIC of Piperacillin in combination with 4 μg/mL inhibitor", "setting": "A. baumani MRO 14512", "value": 64, "unit": "mg/L"},
      {"measurement": "MIC of Piperacillin in combination with 4 μg/mL inhibitor", "setting": "E. coli MRO 10135", "value": ">128", "unit": "mg/L"},
      {"measurement": "MIC of Piperacillin in combination with 4 μg/mL inhibitor", "setting": "A. baumani MRO 14515", "value": 128, "unit": "mg/L"},
      {"measurement": "MIC of Piperacillin in combination with 4 μg/mL inhibitor", "setting": "A. baumani MRO 14514", "value": 64, "unit": "mg/L"},
      {"measurement": "Minimum bactericidal concentration study, Piperacillin in combination with inhibitor", "setting": "[3]", "value": "bacteriostatic"}
    ]}
  ]
}
